Data taken from patent publication US6737383B1, “Herbicidal oxadiazolidines” (priority 1999, dated 2004).

Assays:
cocklebur = assay: Test B pre/postemergence cocklebur; type: in vivo, Xanthium strumarium
Outline: (§1)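 Response is a visual 0-to-10 score relative to untreated plants, where 0 means no effect and 10 means complete control, taken twelve to sixteen days after application. Treatments went onto soil at planting and onto foliage of 1- to 4-leaf plants, using a surfactant-containing non-phytotoxic solvent.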

wild oat = assay: Test B pre/postemergence wild oat; type: in vivo, Avena fatua
Outline: as §1

crabgrass = assay: Test B pre/postemergence crabgrass; type: in vivo, Digitaria sanguinalis
Outline: as §1

bamyardgrass = assay: Test B flood test barnyardgrass; type: in vivo, Echinochloa crus-galli
Outline: (§2)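 Plants were grown to the 2-leaf stage before treatment with test chemical, then held in a greenhouse for twelve to sixteen days. Injury was visually rated against untreated controls on a 0–10 scale, where 0 is no effect and 10 is complete control.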

wheat = assay: Test B pre/postemergence wheat; type: in vivo, Triticum aestivum
Outline: as §1

rice = assay: Test B flood test rice; type: in vivo, Oryza sativa
Outline: as §2

morningglory = assay: Test B pre/postemergence morningglory; type: in vivo, Ipomoea hederacea
Outline: as §1

giant foxtail = assay: Test B pre/postemergence giant foxtail; type: in vivo, Setaria faberii
Outline: as §1

surinam grass = assay: Test B pre/postemergence surinam grass; type: in vivo, Brachiaria decumbens
Outline: as §1

smallflower flatsedge = assay: Test B flood test smallflower flatsedge; type: in vivo, Cyperus difformis
Outline: as §2

pigweed = assay: Test B pre/postemergence pigweed; type: in vivo, Amaranthus retroflexus
Outline: as §1

duck salad = assay: Test B flood test duck salad; type: in vivo, Heteranthera limosa
Outline: as §2

corn = assay: Test B pre/postemergence corn; type: in vivo, Zea mays
Outline: as §1

rape = assay: Test B pre/postemergence rape; type: in vivo, Brassica napus
Outline: as §1

sugar beet = assay: Test B pre/postemergence sugar beet; type: in vivo, Beta vulgaris
Outline: as §1

purple nutsedge = assay: Test B pre/postemergence purple nutsedge; type: in vivo, Cyperus rotundus
Outline: as §1

[1] = Preemergence, Rate 62 g/ha, scale of 0 to 10 where 0 is no effect and 10 is complete control
[2] = Preemergence, Rate 250 g/ha, scale of 0 to 10 where 0 is no effect and 10 is complete control
[3] = Rate 62 g/ha, Postemergence, scale 0 to 10 (0 no effect, 10 complete control)
[4] = Rate 125 g/ha, Postemergence, scale of 0 to 10 where 0 is no effect and 10 is complete control
[5] = Rate 125 g/ha, Preemergence, scale of 0 to 10 where 0 is no effect and 10 is complete control
[6] = Rate 250 g/ha, Postemergence, scale of 0 to 10 where 0 is no effect and 10 is complete control
[7] = Rate 500 g/ha, Postemergence, scale 0 to 10, 0 no effect, 10 complete control
[8] = Preemergence, Rate 500 g/ha, scale of 0 to 10 where 0 is no effect and 10 is complete control
[9] = Rate 62 g/ha, headed Pre-emergence (flood test species), scale 0 to 10 (0 no effect, 10 complete control)
[10] = Rate 125 g/ha, Pre-emergence, flood test species, scale 0 to 10 where 0 is no effect and 10 is complete control
[11] = Rate 250 g/ha, Pre-emergence, flood-test species, scale 0 to 10, 0 is no effect, 10 is complete control
[12] = Rate 500 g/ha, Pre-emergence, flood test species, scale 0 to 10 (0 no effect, 10 complete control)

CC(C)N(C(=O)n1oc(=O)n(C[Si](C)(C)C)c1=O)c1ccc(F)cc1 [Compound 294]
Cocklebur plant response rating (cocklebur; [1]): 0 | Cocklebur plant response rating (cocklebur; [2]): 0 | Cocklebur plant response rating (cocklebur; [3]): 0 | Cocklebur plant response rating (cocklebur; [4]): 0 | Cocklebur plant response rating (cocklebur; [5]): 0 | Plant response rating, Cocklebur (cocklebur; [6]): 0 | Cocklebur plant response rating (cocklebur; [7]): 0 | Wild oats plant response rating (wild oat; [1]): 0 | Wild oats plant response rating (wild oat; [2]): 3 | Plant response rating, Wild oats (wild oat; [8]): 8 | Wild oats plant response rating (wild oat; [3]): 0 | Wild oats plant response rating (wild oat; [4]): 0 | Plant response rating, Wild oats (wild oat; [6]): 0 | Crabgrass plant response rating (crabgrass; [1]): 1 | Crabgrass plant response rating (crabgrass; [2]): 9 | Plant response rating, Crabgrass (crabgrass; [8]): 10 | Crabgrass plant response rating (crabgrass; [3]): 0 | Crabgrass plant response rating (crabgrass; [4]): 0 | Crabgrass plant response rating (crabgrass; [5]): 9 | Plant response rating, Crabgrass (crabgrass; [6]): 2 | Barnyardgrass plant response rating (bamyardgrass; [9]): 0 | Barnyardgrass plant response rating (bamyardgrass; [10]): 3 | Barnyardgrass plant response rating (bamyardgrass; [11]): 9 | Barnyardgrass plant response rating (bamyardgrass; [12]): 9 | Wheat plant response rating (wheat; [1]): 0 | Wheat plant response rating (wheat; [2]): 0 | Plant response rating, Wheat (wheat; [8]): 0 | Wheat plant response rating (wheat; [3]): 0 | Wheat plant response rating (wheat; [4]): 0 | Wheat plant response rating (wheat; [5]): 0 | Plant response rating, Wheat (wheat; [6]): 0 | Rice plant response rating (rice; [9]): 0 | Rice plant response rating (rice; [10]): 0 | Rice plant response rating (rice; [11]): 0 | Rice plant response rating (rice; [12]): 0 | Morningglory plant response rating (morningglory; [1]): 0 | Morningglory plant response rating (morningglory; [2]): 0 | Plant response rating, Morningglory (morningglory; [8]): 0 | Morningglory plant response rating (morningglory; [3]): 6 | Morningglory plant response rating (morningglory; [4]): 6 | Morningglory plant response rating (morningglory; [5]): 0 | Plant response rating, Morningglory (morningglory; [6]): 9 | Giant foxtail plant response rating (giant foxtail; [1]): 7 | Giant foxtail plant response rating (giant foxtail; [2]): 10 | Plant response rating, Giant foxtail (giant foxtail; [8]): 10 | Giant foxtail plant response rating (giant foxtail; [3]): 0 | Giant foxtail plant response rating (giant foxtail; [4]): 0 | Giant foxtail plant response rating (giant foxtail; [5]): 9 | Plant response rating, Giant foxtail (giant foxtail; [6]): 2 | B. signalgrass plant response rating (surinam grass; [1]): 0 | B. signalgrass plant response rating (surinam grass; [2]): 7 | Plant response rating, B. signalgrass (surinam grass; [8]): 9 | B. signalgrass plant response rating (surinam grass; [3]): 0 | B. signalgrass plant response rating (surinam grass; [4]): 0 | B. signalgrass plant response rating (surinam grass; [5]): 7 | Plant response rating, B. signalgrass (surinam grass; [6]): 0 | B. signalgrass plant response rating (surinam grass; [7]): 0 | S. Flatsedge plant response rating (smallflower flatsedge; [9]): 0 | S. Flatsedge plant response rating (smallflower flatsedge; [10]): 0 | S. Flatsedge plant response rating (smallflower flatsedge; [11]): 0 | S. Flatsedge plant response rating (smallflower flatsedge; [12]): 4 | Redroot pigweed plant response rating (pigweed; [1]): 0 | Redroot pigweed plant response rating (pigweed; [2]): 0 | Plant response rating, Redroot pigweed (pigweed; [8]): 2 | Redroot pigweed plant response rating (pigweed; [3]): 0 | Redroot pigweed plant response rating (pigweed; [4]): 0 | Redroot pigweed plant response rating (pigweed; [5]): 0 | Plant response rating, Redroot pigweed (pigweed; [6]): 0 | Ducksalad plant response rating (duck salad; [9]): 0 | Ducksalad plant response rating (duck salad; [10]): 0 | Ducksalad plant response rating (duck salad; [11]): 0 | Ducksalad plant response rating (duck salad; [12]): 0 | Corn plant response rating (corn; [1]): 0 | Corn plant response rating (corn; [2]): 0 | Plant response rating, Corn (corn; [8]): 2 | Corn plant response rating (corn; [3]): 0 | Corn plant response rating (corn; [4]): 0 | Corn plant response rating (corn; [5]): 0 | Plant response rating, Corn (corn; [6]): 0 | Corn plant response rating (corn; [7]): 0 | Rape plant response rating (rape; [1]): 0 | Rape plant response rating (rape; [2]): 0 | Plant response rating, Rape (rape; [8]): 3 | Rape plant response rating (rape; [3]): 0 | Rape plant response rating (rape; [4]): 0 | Rape plant response rating (rape; [5]): 0 | Plant response rating, Rape (rape; [6]): 2 | Sugarbeets plant response rating (sugar beet; [1]): 0 | Sugarbeets plant response rating (sugar beet; [2]): 0 | Plant response rating, Sugarbeets (sugar beet; [8]): 2 | Sugarbeets plant response rating (sugar beet; [3]): 0 | Sugarbeets plant response rating (sugar beet; [4]): 0 | Sugarbeets plant response rating (sugar beet; [5]): 0 | Plant response rating, Sugarbeets (sugar beet; [6]): 0 | Nutsedge plant response rating (purple nutsedge; [1]): 0 | Nutsedge plant response rating (purple nutsedge; [2]): 0 | Plant response rating, Nutsedge (purple nutsedge; [8]): 0 | Nutsedge plant response rating (purple nutsedge; [3]): 0 | Nutsedge plant response rating (purple nutsedge; [4]): 0 | Nutsedge plant response rating (purple nutsedge; [5]): 0 | Plant response rating, Nutsedge (purple nutsedge; [6]): 0
